According to PMC11167521, “Inhibition of neuraminidase-1 sialidase activity by interfering peptides impairs insulin receptor activity in vitro and glucose homeostasis in vivo” (The Journal of Biological Chemistry, 2024):
No end group written: not given here.

Key:
membrane NEU-1 dimers = target: T1, membrane NEU-1 dimers (Homo sapiens, UniProt Q99519); assay: NEU-1 dimerization in HepG2 cell membrane extracts (Western blot); assay type: biochemical; settings: 0.1 μM, n = 4, mean ± SEM
T1 construct: HepG2 endogenously expresses IR and NEU-1; endogenous in cells; host or cells: HepG2 (ATCC HB-8065)
Description: HepG2 cells grown in 75 cm^2 flasks at 80% of confluence were washed twice with cold PBS and resuspended with 1 ml cold TEM buffer (75 mM Tris, 2 mM EDTA, 12 mM MgCl2, at pH 7,5) extemporaneously completed with 1% (v/v) protease inhibitor cocktail, 10 mM NaF, and 2 mM Na3VO4. After sonication, samples were centrifuged at 600g for 10 min at 4 °C to remove unlysed cells and nuclei. Supernatants were collected and centrifuged at 20,000g for 45 min at 4 °C. Crude membrane-containing pellets were then resuspended in TEM buffer supplemented with 1% (w/v) CHAPS {3-[(3-cholamidopropyl) dimethylammonio]-1-propanesulfonate} (Sigma-Aldrich). Cell membranes were then incubated with peptides at 0.1 μM and solubilized for 3 h at 4 °C under gentle end-over-end mixing. Supernatants were recovered after a centrifugation step (20,000g, 45 min, and 4 °C). These samples were then used for Western blot analyzes.
Protein samples were diluted in Laemmli buffer (500 mM Tris, 10% (w/v) SDS, 20% saccharose (w/v), 0.5% (w/v) bromophenol blue, 10% (v/v) β-mercaptoethanol, pH 6.8) and heated for 5 min at 100 °C. […]
Chemiluminescent protein detection was done by using ECL Prime Kit (GE Healthcare, Orsay, France). […] Quantification of bands intensity has been made using Image Studio Lite software (https://www.licor.com/bio/image-studio/).

membrane NEU-1 [1] = target: T2, membrane NEU-1 (Homo sapiens, UniProt Q99519); assay: Membrane NEU-1 sialidase activity, HepG2 crude membranes (Muf-NANA); assay type: biochemical; settings: 0.1 μM, 15 min incubation, compared to mutIntPep-RKR at same concentration, n = 4-5, mean ± SEM
Description: HepG2 cells grown in 75 cm^2 flasks and COS-7 cell lines grown in 10 cm Petri dishes were washed twice with cold PBS and resuspended with 1 ml cold TEM buffer extemporaneously completed with 1% (v/v) protease inhibitor cocktail, 10 mM NaF, 2 mM Na3VO4. After sonication, samples were centrifuged at 600g for 10 min at 4 °C to remove nonlysed cells and nuclei. Supernatants were extracted and centrifuged at 20,000g for 45 min at 4 °C. Crude membrane-containing pellets were then resuspended in 400 μl Mes buffer (2-(N-morpholino) ethanesulfonic acid hydrate, 20 mM, pH 4.5). Protein concentration was then determined by bicinchoninic acid assay to measure sialidase activity from 50 μg of crude membrane proteins. Samples were incubated with peptides for 15 min on ice. Muf-NANA (2′-(4-MethylUmbelliFeryl)-alpha-D-N-AcetylNeuraminic Acid) (Biosynth) at a concentration of 400 μM was then added and incubated with samples for 2 h at 37 °C in the dark. The reaction was then stopped by adding Na2CO3 (Merck). A total of 150 μl of each sample were finally transferred in black 96 well plates. Emitted fluorescence was measured with Infinite F200 Pro (TECAN) hardware and Magellan software (excitation: 360 nm/emission: 465 nm) (https://lifesciences.tecan.com/software-magellan?p=tab--2).

membrane NEU-1 [2] = target: T2, membrane NEU-1; assay: Membrane NEU-1 sialidase activity, COS-7^IR/NEU-1 crude membranes (Muf-NANA); assay type: biochemical; parameters: host or cells: COS-7 (ATCC CRL-1651) or COS-7^IR, transient transfection, 72 h; settings: COS-7^IR/NEU-1 crude membrane, 0.1 μM, 15 min, compared to mutIntPep-RKR, n = 4-5, mean ± SEM
Description: (§1) Plasmid encoding human IR was a gift from Dr Tarik Issad (Institut Cochin, Paris, France) and plasmid encoding human PPCA protein was provided by Pr. Alessandra d’Azzo (St Jude Children's Research Hospital, Memphis, USA). These two plasmids have been previously described ([50], [51]). Plasmid encoding human NEU-1 was purchased from ImaGenes GmbH. For cell transfections, JetPEI DNA transfection reagent was purchased from Polyplus transfection. […] HepG2 cells were harvested in 1 g/L glucose Dulbecco’s modified Eagle’s medium supplemented with 10% heat inactivated fetal bovine serum, 100 units/ml penicillin, 0,1 mg/ml streptomycin at 37 °C in a humidified atmosphere at 5% CO2. COS-7 cells were maintained in culture in 4.5 g/L glucose Dulbecco’s modified Eagle’s medium supplemented with 10% heat-inactivated fetal bovine serum, 100 units/ml penicillin, 0.1 mg/ml streptomycin at 37 °C in a humidified atmosphere at 5% CO2. COS-7 cells have been stably transfected with plasmid encoding human IR. Geneticin selection (400 μg/ml) has been made after transfection to obtain a stable cell line overexpressing IR named COS-7^IR. Geneticin (80 μg/ml) were added in the completed medium to maintain this cell line. […]

HepG2 cells = assay: MTT cell viability assay, HepG2 cells; assay type: cell-based, human; settings: peptide 0.1 μM in LDS micelles, 3 h and 24 h, compared to control without treatment, n = 3-4
Description: (§2) The concentration of 0.1 μM and two incubation times, 3 h (Fig. S1, A and C) and 24 h (Fig. S1, B and D) have been tested. […] The choice of this concentration was based on the previous study by Albrecht et al. ([31]).
(§3) HepG2 cell line and COS-7^IR cells were, respectively, harvested in 96-well plates at a cell density of 80,000 cells/well and 10,000 cells/well. After 24 h, cells were incubated with IntPep-RKR or mutIntPep-RKR at 0.1 μM or only with LDS micelles during 3 h or 24 h. Then, the medium has been removed and cells were incubated in the dark during 4 h at 37 °C with a 3-(4-5-dimethylthiazol-2-yl) -2,5-diphenyltetrazolium bromide solution (MTT, Sigma, 5 mg/ml) diluted in PBS (one-sixth v/v). The medium was removed, and 100 μl of dimethyl sulfoxide were added in each well. Cell viability was measured at 570 nm with Infinite F200 Pro (TECAN) hardware using Magellan software (https://lifesciences.tecan.com/software-magellan?p=tab--2).
(§4) HepG2 cells (A,B) and COS-7 cells
(§5) overexpressing IR (C,D) were incubated with mutIntPep-RKR, IntPep-RKR (0.1 µm) or LDS
(§6) micelles for 3h (A,C) or for 24h (B,D).
(§7) ZS equipment (Malvern Panalytical, UK). Water was used as a reference dispersing medium.
(§8) Micelles sizes were expressed in volume (as the diameter of a theorical sphere in nanometer),

membrane NEU-1 [3] = target: T2, membrane NEU-1; assay: Membrane NEU-1 sialidase activity, COS-7^NEU-1 crude membranes (Muf-NANA); assay type: biochemical; parameters: host or cells: COS-7 (ATCC CRL-1651) or COS-7^IR, transient transfection, 72 h; settings: COS-7^NEU-1 crude membrane, 0.1 μM, 15 min, compared to mutIntPep-RKR, n = 4-5, mean ± SEM
Description: as §1

[4] = test system: COS-7 cells overexpressing IR (COS-7^IR); assay: MTT cell viability assay, COS-7 cells overexpressing IR; assay type: cell-based, African green monkey; settings: peptide 0.1 μM in LDS micelles, 3 h and 24 h, compared to control without treatment, n = 3-4
Description: as §2, §3, §4, §5, §6, §7, §8

[5] = target: T3, membrane NEU-1 in HepG2 cells (Homo sapiens, UniProt Q99519); assay: Colocalization of fluorescent peptide with NEU-1 by confocal microscopy; assay type: cell-based; settings: fixed HepG2 cells, 0.1 μM in LDS micelles, 1 h, n = 3
T3 construct: HepG2 endogenously expresses IR and NEU-1; endogenous in cells; host or cells: HepG2 (ATCC HB-8065)
Description: IntPeps coupled with FITC and solubilized in LDS micelles have been incubated at 0.1 μM for 1 h with fixed HepG2 cells.
HepG2 cells were seeded onto coverslips in 24-well plates at 50,000 cells/well. After 24 h, cells were fixed with paraformaldehyde 1% (Euromedex) for 5 min followed by a second incubation with paraformaldehyde 2% for 10 min at room temperature (RT). Cells were washed twice for 5 min with PBS and permeabilized with Triton 0.2% during 5 min at RT. A total of 3% bovine serum albumin (BSA) was disposed in each well for 1 h at RT after three washes with PBS for 5 min. Cells were then incubated with NEU-1 mouse monoclonal antibody (1/200 in PBS with 3% BSA) (Santa Cruz Biotechnology) for 2 h at RT. Then, this solution was removed, and the cells were incubated with anti-mouse secondary antibody coupled with Alexa Fluor 568 (1/1000 in PBS with 3% BSA) (Invitrogen) for 2 h at RT in the dark. After washes, cells were incubated with IntPeps coupled with FITC (0.1 μM) or with FITC alone (0.1 μM) at RT in the dark. Coverslips were then mounted in a medium containing 4′,6-diamidino-2-phenylindole (Prolong gold, antifade, Invitrogen). Slides were finally observed using confocal microscopy (Zeiss LSM 710) and featured slices were analyzed with Image J software (https://imagej.net/ij/download.html).

C57Bl/6J mice [6] = assay: Systemic and cellular toxicity, plasma AST, CRP and LDH in mice; assay type: in vivo, mouse
Description: (§9) Experiments procedures were evaluated by research ethics committee of the University of Reims Champagne-Ardenne and approved by the French Ministry of Higher Education, Research and Innovation (APAFis #33891-2021111016547019). Five C57Bl/6J male and five female mice (Janvier Labs), aged 6 weeks, were maintained in a 12/12-h light/dark cycle and in a temperature and humidity-controlled environment. All mice had ad libitum access to a diet without chlorophyll (#U8959, SAFE diet) and water during the experimental period. Mice weight was measured twice per week throughout treatment. Weight gain or loss was then calculated and normalized to the weight measurement of the first week. The food intake was evaluated with weight feeders during the last week of treatment and every day. This weight was then divided by the number of mice in each cage.
(§10) Treatments have been started when mice were aged 8 weeks. Mice were under diet without chlorophyll (#U8959, SAFE diet) 2 weeks before the beginning of treatments to minimize the background noise of fluorescence measurements. LDS micelles or Cy5-IntPep-RKR were prepared as described previously and injected intraperitoneally at 100 μg/kg twice per week (100 μl).
Blood samples were collected before and after 8-weeks treatment, respectively, with LDS micelles or Cy5-IntPep-RKR by retroorbital and intracardiac pathway with sterile heparin Pasteur pipets and sterile needle in lithium heparin MiniCollect tubes (Greiner Bio-One). Animals were under isoflurane anesthesia during blood recovery. After centrifugation (3000 rpm, 10 min), plasma samples were then recovered in 1.5 ml eppendorfs and conserved at −20 °C. Finally, these samples were sent to the Institut Clinique de la Souris (Illkirch, France) to quantify several parameters as AST, CRP, and LDH. Graphics represent the percentages of observed variation between values obtained before and after 8-weeks treatment with LDS micelles or Cy5-IntPep-RKR.

C57Bl/6J mice [7] = assay: Glycemia measurement in mice; assay type: in vivo, mouse
Description: as §10
A slight incision at tail was made to collect a drop of blood (<10 μl). The nonfasted blood glucose was then measured under anesthesia for all groups with Contour Plus device and reactive strips before injection and 30 min after injection of LDS micelles or Cy5-IntPep-RKR at 100 μg/kg. Data were then normalized for each group by comparison with glycemia value before injection.

C57Bl/6J mice [8] = assay: Biodistribution of fluorescent peptide in mice (fluorescence molecular tomography); assay type: in vivo, mouse; settings: 100 μg/kg i.p. twice per week
Description: as §9, §10
Fluorescence measurements in entire body were realized in 13 mm cassette under isoflurane anesthesia (with PerkinElmer fluorescence molecular tomography 4000) at first, second, fifth, seventh, and eighth weeks of the treatment and 15 min after injection of fluorescent peptides. Organs were collected at the end of the treatment and placed on another cassette to measure their fluorescence with the same device. To remove the potential autofluorescence of certain organs, organ fluorescence of mice receiving LDS micelle injection (twice per week at 100 μg/kg) was measured and subtracted to those of mice receiving Cy5-IntPep-RKR. The measurement of organ fluorescence has been converted in ng of peptides per gram of organ and represented in % of peptides per organ. The software TrueQuant has been used for analyzes (https://www.perkinelmer.com.cn/lab-products-and-services/resources/in-vivo-imaging-software-downloads.html?_ga=2.29909951.1041849854.1637318373-1604795059.1637318373). The geometric size of the region of interest (ROI) background was between 40 and 41.5 mm^3, and one of the ROI was between 7900 and 8100 mm^3 in the entire body. The geometric size of the ROI background was the same in organ per organ biodistribution and one of the ROI for each organ approximatively as followed: the adipose tissue (1825 mm^3), the spleen (1095 mm^3), the stomach (2555 mm^3), the bladder (594 mm^3), the muscle (1142 mm^3), the liver (3379 mm^3), and the kidneys (1946 mm^3).

C57Bl/6J mice [9] = assay: Weight and food intake during 8 weeks of treatment in mice; assay type: in vivo, mouse; settings: compared to LDS micelles
Description: as §9, §10

[10] = 100 μg/kg i.p. twice per week for 8 weeks, versus LDS micelles group
[11] = after 8 weeks, organ fluorescence, n = 10, mean ± SEM

ELVDPVVAAGAVVTSSGIVFFSRKR [IntPep-RKR]
decrease of the formation of NEU-1 dimers (membrane NEU-1 dimers; HepG2 cell membrane extracts, 3 h at 4 °C, compared to mutIntPep-RKR): 30.7% ± 5.6%
decrease of the ratio NEU-1 dimers/NEU-1 monomers (membrane NEU-1 dimers; HepG2 cell membranes, normalized to mutIntPep-RKR condition): 42.4% ± 7.3%
decrease of membrane NEU-1 sialidase activity (membrane NEU-1 [1]): 32.6% ± 5.7%
decrease of membrane NEU-1 sialidase activity (membrane NEU-1 [2]): 18.1% ± 2.9%
cell toxicity (cell viability, MTT) (HepG2 cells): do not induce cell toxicity
decrease of membrane NEU-1 sialidase activity (membrane NEU-1 [3]): 35.3% ± 7.6%
cell toxicity (cell viability, MTT) [4]: do not induce cell toxicity

ELVDPVVVAIAVVTSSIIAFFSRKR [mutIntPep-RKR]
cell toxicity (cell viability, MTT) (HepG2 cells): do not induce cell toxicity
cell toxicity (cell viability, MTT) [4]: do not induce cell toxicity

FITC-LC- E312LVDPVVAAGAVVTSSGIVFFS333-RKR [FITC-IntPep-RKR, IntPeps coupled with FITC and solubilized in LDS micelles]
colocalization with NEU-1 [5]: colocalization areas at the plasma membrane

H-C(Cy5)-E312LVDPVVAAGAVVTSSGIVFFSRKR333-NH2 [Cy5-IntPep-RKR, IntPeps coupled with cyanine-5, injected in LDS micelles]
plasma aspartate transaminase (AST) activity (C57Bl/6J mice [6]; [10]): No significant difference
plasma expression level of C-reactive protein (CRP) (C57Bl/6J mice [6]; [10]): No significant difference
plasma lactate dehydrogenase (LDH) activity (C57Bl/6J mice [6]; [10]): No significant difference
decrease of CRP level (C57Bl/6J mice [6]; 100 μg/kg i.p. twice per week, comparing data before and after 8-week treatment, mean ± SEM): 21.11% ± 3.1%
toxicity and inflammation (C57Bl/6J mice [6]; 8-week treatment, two injections per week at 100 μg/kg): did not induce toxicity and inflammation
increase of blood glucose after peptide injection (C57Bl/6J mice [7]; C57Bl/6J mice without fasting, isoflurane anesthesia, 30 min after i.p. injection at 100 μg/kg, compared to before injection, n = 10, mean ± SEM): about 44.5% ± 10.4%
blood glucose level, mice fasted for 4 h or fed (C57Bl/6J mice [7]; C57Bl/6J mice, 8 weeks of treatment at 100 μg/kg twice per week, versus LDS micelles group, n = 10 per group): no difference of blood glucose level
whole body fluorescence distribution (C57Bl/6J mice [8]; 15 min after injection, weeks 1,2,5,7 and 8): well distributed in the whole organism
% of peptides per organ, white adipose tissue (C57Bl/6J mice [8]; after 8 weeks, organ fluorescence minus autofluorescence, n = 10, mean ± SEM): 29.2% ± 9%
% of peptides per organ, bladder (C57Bl/6J mice [8]; [11]): 18.52% ± 5.7%
% of peptides per organ, kidneys (C57Bl/6J mice [8]; [11]): 5.33% ± 2.1%
% of peptides per organ, liver (C57Bl/6J mice [8]; [11]): 6.13% ± 2.5%
% of peptides per organ, muscle (C57Bl/6J mice [8]; [11]): 17 ± 4.25%
% of peptides per organ, spleen (C57Bl/6J mice [8]; [11]): 17.05% ± 3.7%
weight (C57Bl/6J mice [9]; 100 μg/kg i.p. twice per week, 8 weeks, n = 10 per group): do not induce modification of weight
food intake (C57Bl/6J mice [9]; last week of 8-week treatment, n = 6): do not impair the food intake
